Publication PMC7773830, “Necator americanus Ancylostoma Secreted Protein-2 (Na-ASP-2) Binds an Ascaroside (ascr#3) in Its Fatty Acid Binding Site” (Frontiers in Chemistry, 2020)
Like-named read-outs stand apart in the source and are kept apart here.

Legend:
[1] = target: T1, Pry1 (Saccharomyces cerevisiae, UniProt P47032); assay: Microscale thermophoresis; conditions: His-tagged Pry1, N/A where there is no binding, mean ± SD of three experiments
T1 construct: made in house; host or cells: Escherichia coli BL21
T1 sequence (P47032 20-299): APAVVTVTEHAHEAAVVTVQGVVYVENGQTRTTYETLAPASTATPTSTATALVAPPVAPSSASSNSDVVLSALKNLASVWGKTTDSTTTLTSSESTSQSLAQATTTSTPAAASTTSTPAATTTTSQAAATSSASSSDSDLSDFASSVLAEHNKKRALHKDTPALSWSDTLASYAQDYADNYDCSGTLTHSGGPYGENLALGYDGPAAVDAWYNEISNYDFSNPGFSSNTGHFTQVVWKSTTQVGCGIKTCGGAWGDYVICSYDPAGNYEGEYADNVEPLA
Method: (§1) Microscale thermophoresis was performed using a Monolith NT.115 from Nanotemper Technologies (Munich, Germany) (Seidel et al., [2012]; Shang et al., [2012]; Zillner et al., [2012]). His-tagged protein (Pry1 or Na-ASP-2) was fluorescently labeled using the RED-tris-NTA His-tag protein labeling kit (Nanotemper Technologies). Labeled protein (Pry1 or Na-ASP-2) was subsequently added to serial dilution of unlabeled ligand (ascarosides or their fatty acid moieties) in binding buffer (20 mM Tris pH 7.5, 30 mM NaCl, 0.05% Triton X-100). Each sample was loaded into standard glass capillaries, and measurements were performed at 60% laser power setting. Dissociation constant Kd was obtained by plotting the normalized fluorescence (Fnorm) against the logarithm of ligand concentration. Experiments were performed in triplicates and the Kd model of the MO Affinity Analysis software (Nanotemper Technologies, Munich, Germany) was used for data fitting.
(§2) Figure 5 Na-ASP-2 selectively binds ascr#3 but not oscr#10. Binding of ascarosides and their fatty acid moieties by Pry1 and Na-ASP-2 as measured by microscale thermophoresis. (A,G) Palmitic acid; (B,H) ascr#3; (C,I) oscr#10; (D,J) (R)-8-hydroxynonanoic acid; (E,K) (R, E)-8-hydroxynon-2-enoic acid; (F,L) 9-hydroxynonanoic acid. Pry1 binds palmitic acid and free hydroxylated nanonoic acids with similar affinities but binds neither the ascarosides ascr#3 and oscr#10. Na-ASP-2 binds palmitic acid, ascr#3 and free hydroxylated nanonoic acids with similar affinities but not oscr#10. The Kd values are indicated in each figure with N/A (not applicable) where there is no binding. Data represent mean ± SD of three independent experiments.

[2] = target: T2, Na-ASP-2 (Necator americanus, UniProt Q7Z1H1); assay: Microscale thermophoresis; assay type: binding
Method: as §1, §2

[3] = target: Sm-VAL-4; design: method as in earlier work; conditions: ref Kelleher et al., 2014, Darwiche et al., 2016, 2018, Asojo et al., read-out: cholesterol binding affinity; cited from earlier work
[4] = target: T2, Na-ASP-2; assay: [3H]-cholesterol radioligand binding and competition assay; conditions: for competition with [3H]-cholesterol for binding to Na-ASP-2: unlabeled ligand vs 50 pmol [3H]-cholesterol, 100 pmol Na-ASP-2
Method: (§3) The radioligand binding assay was performed as described previously (Im et al., [2005]; Choudhary and Schneiter, [2012]). Hundred pmol of purified untagged CAP protein (Na-ASP-2 or Pry1) in binding buffer (20 mM Tris, pH 7.5, 30 mM NaCl, 0.05% Triton X-100) was incubated for 1 h at 30 °C with different concentrations of either [^3H]-cholesterol or [^3H]-palmitic acid. Protein was removed from unbound ligand by adsorption to Q-sepharose beads (GE Healthcare, USA), the beads were washed, protein was eluted and the protein-bound radioligand was quantified by scintillation counting. For competition binding assays, specified concentrations of unlabeled cholesterol, palmitic acid or ligands, were included in the binding reaction. Non-specific binding was determined by performing the assays without the addition of protein. Statistical significance of data was analyzed by multiple t-test (GraphPad Prism, La Jolla, CA).
Figure 3 Na-ASP-2 binds both cholesterol and free palmitic acid. (A) Ligand binding of [^3H]-cholesterol to Na-ASP-2. Purified Na-ASP-2 (100 pmol) was incubated with increasing concentrations of [^3H]-cholesterol (100–400 pmol), in absence and presence of 400 pmol of unlabeled cholesterol (chol). The protein was separated from the unbound ligand by adsorption to an anion-exchange matrix and the protein-bound radioligand was quantified by scintillation counting. […] Data represent mean ± SD of 3 independent experiments. (B) Competitive binding of unlabeled cholesterol (50 or 5,000 pmol) to Na-ASP-2. Binding of [^3H]-cholesterol (50 pmol) to Na-ASP-2 (100 pmol) was assessed in the presence of the indicated concentrations of unlabeled cholesterol (chol). Each data point is the average of duplicate assays and represents the amount of [^3H]-cholesterol bound relative to a control containing no unlabeled cholesterol. (C) Ligand binding of [^3H]-palmitic acid to Na-ASP-2. Purified Na-ASP-2 (100 pmol) was incubated with increasing concentrations of [^3H]-palmitic acid (100–400 pmol), in absence and presence of 400 pmol of unlabeled palmitic acid (pal). (D) Competitive binding of unlabeled palmitic acid (50 or 5,000 pmol) to Na-ASP-2. Binding of [^3H]-palmitic acid (50 pmol) to Na-ASP-2 (100 pmol) was assessed in the presence of the indicated concentration of unlabeled palmitic acid (pal). Each data point is the average of duplicate assays and represents the amount of [^3H]-palmitic acid bound relative to a control containing only labeled palmitic acid. […]
(§4) Figure 4 Binding of ligands to Na-ASP-2 and Pry1. […] Binding of [^3H]-cholesterol (50 pmol) to Na-ASP-2 (100 pmol) was assessed in the presence of (50 pmol and 500 pmol) of unlabeled ascarosides or fatty acid moieties (1-5) (B) Fatty acids moieties and ascr#3 compete with [^3H]-palmitic acid for binding to Na-ASP-2. […]

[5] = target: Hp-VAL-4; design: method as in earlier work; conditions: ref Kelleher et al., 2014, Darwiche et al., 2016, 2018, Asojo et al., read-out: cholesterol binding affinity; cited from earlier work
[6] = target: Bm-VAL-1; design: method as in earlier work; conditions: ref Kelleher et al., 2014, Darwiche et al., 2016, 2018, Asojo et al., read-out: cholesterol binding affinity; cited from earlier work
[7] = target: T1, Pry1; assay: [3H]-palmitic acid competition binding assay; conditions: 100 pmol Pry1; for competition with [3H]-palmitic acid for binding to Pry1, excess ligand: excess unlabeled ligand (500 pmol) vs 50 pmol [3H]-palmitic acid; for competition with [3H]-palmitic acid for binding to Pry1: unlabeled ligand vs 50 pmol [3H]-palmitic acid
Method: as §3
Figure 4 Binding of ligands to Na-ASP-2 and Pry1. (A) Free fatty acids and ascarosides fail to compete with [^3H]-cholesterol for binding to Na-ASP-2. Binding of [^3H]-cholesterol (50 pmol) to Na-ASP-2 (100 pmol) was assessed in the presence of (50 pmol and 500 pmol) of unlabeled ascarosides or fatty acid moieties (1-5) (B) Fatty acids moieties and ascr#3 compete with [^3H]-palmitic acid for binding to Na-ASP-2. (C) Only fatty acids moieties compete [^3H]-palmitic acid for binding to Pry1. Competitive binding was tested with either 50 or 500 pmol of the unlabeled ligands and 50 pmol of [^3H]-palmitic acid for binding to 100 pmol purified Na-ASP-2 or Pry1. The ascarosides tested are (1) (ascr#3) and (2) (oscr#10) while the fatty acids are 3 [(R)-8-hydroxynonanoic acid], 4 [(R, E)-8-hydroxynon-2-enoic acid], and 5 (9-hydroxynonanoic acid). Data represent mean ± SD of 3 independent experiments. Asterisks denote statistical significance relative to the control containing only the radiolabeled ligand and either purified Na-ASP-2 or Pry1. (**p < 0.001; *p < 0.01). n.s., not significant.

[8] = target: tablysin-15; conditions: ref Kelleher et al., 2014, Darwiche et al., 2016, 2018, Asojo et al., read-out: Kd for palmitic acid; cited from earlier work
[9] = target: T2, Na-ASP-2; assay: [3H]-palmitic acid radioligand binding and competition assay; conditions: for competition with [3H]-palmitic acid for binding to Na-ASP-2: 50 or 500 pmol unlabeled ligand vs 50 pmol [3H]-palmitic acid, 100 pmol Na-ASP-2
Method: as §3
Figure 3 Na-ASP-2 binds both cholesterol and free palmitic acid. (A) Ligand binding of [^3H]-cholesterol to Na-ASP-2. Purified Na-ASP-2 (100 pmol) was incubated with increasing concentrations of [^3H]-cholesterol (100–400 pmol), in absence and presence of 400 pmol of unlabeled cholesterol (chol). The protein was separated from the unbound ligand by adsorption to an anion-exchange matrix and the protein-bound radioligand was quantified by scintillation counting. […] Data represent mean ± SD of 3 independent experiments. […] Binding of [^3H]-cholesterol (50 pmol) to Na-ASP-2 (100 pmol) was assessed in the presence of the indicated concentrations of unlabeled cholesterol (chol). […] Binding of [^3H]-palmitic acid (50 pmol) to Na-ASP-2 (100 pmol) was assessed in the presence of the indicated concentration of unlabeled palmitic acid (pal). […]
as §4

[10] = target: Bm-VAL-1; design: method as in earlier work; conditions: ref Kelleher et al., 2014, Darwiche et al., 2016, 2018, Asojo et al., read-out: Kd for palmitic acid; cited from earlier work
[11] = target: Pry1; design: method as in earlier work; conditions: ref Kelleher et al., 2014, Darwiche et al., 2016, 2018, Asojo et al., read-out: Kd for palmitic acid; cited from earlier work

T2 sequence (Q7Z1H1 entry or part of it): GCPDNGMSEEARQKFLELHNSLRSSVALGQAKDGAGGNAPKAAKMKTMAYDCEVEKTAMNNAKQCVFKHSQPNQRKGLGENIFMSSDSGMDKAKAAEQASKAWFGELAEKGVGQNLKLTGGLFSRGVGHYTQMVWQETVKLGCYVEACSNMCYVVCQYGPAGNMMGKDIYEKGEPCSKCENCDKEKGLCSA

**Q.** What does the source list for `C[C@@H](O)CCCC/C=C/C(=O)O` [(R,E)-8-hydroxynon-2-enoic acid, (R, E)-8-hydroxynon-2-enoic acid]?
**A.** Kd ([1]; read-out: Kd): 900 ± 0.9 µM; Kd [2]: 290 ± 2 µM

**Q.** With `C[C@@H](O)CCCCCCC(=O)O` [(R)-8-hydroxynonanoic acid] as the molecule, how does the Kd ([1]; read-out: Kd) read?
**A.** The Kd was 600 ± 1.9 µM.

**Q.** What about the Kd [2] of the same molecule?
**A.** The Kd was 500 ± 2.3 µM.

**Q.** With `CC(C)CCC[C@@H](C)[C@H]1CC[C@H]2[C@@H]3CC=C4C[C@@H](O)CC[C@]4(C)[C@H]3CC[C@]12C` [cholesterol] as the molecule, how does the Kd [3] read?
**A.** The Kd was 2.4 µM.

**Q.** What about the Kd [4] of the same molecule?
**A.** Its Kd is 2.1 µM.

**Q.** What about the “competition with [3H]-cholesterol for binding to Na-ASP-2” value (shortened to “competition with [3H]-cholesterol”) [4] of the same molecule?
**A.** The value was “reduced binding of the radioligand”.

**Q.** And the Kd [5]?
**A.** Its Kd is 1.53 µM.

**Q.** And the Kd [6]?
**A.** Its Kd is 0.9 µM.

**Q.** For `C[C@@H]1O[C@@H](OCCCCCCCCC(=O)O)[C@H](O)C[C@H]1O` [oscr#10], which “competition with [3H]-palmitic acid for binding to Pry1, excess ligand” value [7] is on record?
**A.** The value was “could not be competed”.

**Q.** And the “competition with [3H]-palmitic acid for binding to Pry1” value [7]?
**A.** The value was “neither ascr#3 (1) nor oscr#10 (2) bound”.

**Q.** What about the “competition with [3H]-cholesterol” value [4] of the same molecule?
**A.** Its value is “neither ascarosides [ascr#3 (1) and oscr#10 (2)] nor fatty acids (3-5) competed”.

**Q.** What about the Kd [1] of the same molecule?
**A.** Its Kd is “does not bind”.

**Q.** And the Kd ([2]; microscale thermophoresis, His-tagged Na-ASP-2, N/A where there is no binding, mean ± SD of three experiments)?
**A.** The Kd was “does not bind”.

**Q.** Which results are given for `O=C(O)CCCCCCCCO` [9-hydroxynonanoic acid]?
**A.** Kd ([1]; read-out: Kd): 650 ± 1.7 µM; Kd [2]: 230 ± 2.5 µM

**Q.** Which Kd [8] does the source give for `CCCCCCCCCCCCCCCC(=O)O` [palmitic acid, reference compound] here?
**A.** The Kd was 94 µM.

**Q.** What about the Kd [9] of the same molecule?
**A.** Its Kd is 95 µM.

**Q.** What about the “competition with [3H]-palmitic acid for binding to Na-ASP-2” value [9] of the same molecule?
**A.** Its value is “reduced”.

**Q.** What about the Kd [10] of the same molecule?
**A.** Its Kd is 83 µM.

**Q.** What about the Kd [11] of the same molecule?
**A.** Its Kd is 112 µM.

**Q.** And the Kd ([1]; read-out: Kd)?
**A.** The Kd was 120 ± 1.2 µM.

**Q.** What about the Kd [2] of the same molecule?
**A.** Its Kd is 220 ± 1 µM.

**Q.** For `C[C@H](CCCC/C=C/C(=O)O)O[C@@H]1O[C@@H](C)[C@H](O)C[C@H]1O` [ascr#3], which “competition with [3H]-palmitic acid for binding to Pry1, excess ligand” value [7] is on record?
**A.** The value was “could not be competed”.

**Q.** What about the “competition with [3H]-palmitic acid for binding to Pry1” value [7] of the same molecule?
**A.** The value was “neither ascr#3 (1) nor oscr#10 (2) bound”.

**Q.** What about the “competition with [3H]-cholesterol” value [4] of the same molecule?
**A.** The value was “neither ascarosides [ascr#3 (1) and oscr#10 (2)] nor fatty acids (3-5) competed”.

**Q.** What about the “competition with [3H]-palmitic acid for binding to Na-ASP-2” value [9] of the same molecule?
**A.** Its value is “competed”.

**Q.** What about the Kd [1] of the same molecule?
**A.** The Kd was “does not bind”.

**Q.** What about the Kd [2] of the same molecule?
**A.** Its Kd is 142 µM.
